Values joined by “and” are separate entries in the source; they are usually repeats but may differ in a detail not shown here. Identical values can stand only once. Inconclusive results and toxic doses are left out. Cut-off read from the data, not from the text of the source: active = T/C of 150% or more; inactive = T/C below 125%.
Tested on: L1210 leukemia ip in BDF1 mice, survival T/C
Assay: NCI In Vivo Anticancer Drug Screen. Data for tumor model L1210 Leukemia (intraperitoneal) in B6D2F1 (BDF1) mice
Details: endpoint: mean survival time, higher = longer survival
How it was run: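 In this screen, tumor-bearing mice given compound are compared to those given vehicle, and their survival values are reported as a treated-to-control quotient.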

[1] = dose: 100.0 mg/kg/injection, schedule: Q01DX009 (ip), vehicle: Klucel (hydroxypropylcellulose) (HPC)
[2] = dose: 100.0 mg/kg/injection, schedule: Q04DX003 (ip), vehicle: Klucel (hydroxypropylcellulose) (HPC)
[3] = dose: 200.0 mg/kg/injection, schedule: Q01DX009 (ip), vehicle: Klucel (hydroxypropylcellulose) (HPC)
[4] = dose: 200.0 mg/kg/injection, schedule: Q04DX003 (ip), vehicle: Klucel (hydroxypropylcellulose) (HPC)
[5] = dose: 400.0 mg/kg/injection, schedule: Q01DX009 (ip), vehicle: Klucel (hydroxypropylcellulose) (HPC)
[6] = dose: 400.0 mg/kg/injection, schedule: Q04DX003 (ip), vehicle: Klucel (hydroxypropylcellulose) (HPC)
[7] = dose: 75.0 mg/kg/injection, schedule: Q04DX003 (ip), vehicle: Klucel (hydroxypropylcellulose) (HPC)
[8] = dose: 100.0 mg/kg/injection, schedule: Q04DX002 (ip), vehicle: Klucel (hydroxypropylcellulose) (HPC)
[9] = dose: 150.0 mg/kg/injection, schedule: Q04DX003 (ip), vehicle: Klucel (hydroxypropylcellulose) (HPC)
[10] = dose: 200.0 mg/kg/injection, schedule: Q04DX002 (ip), vehicle: Klucel (hydroxypropylcellulose) (HPC)
[11] = dose: 300.0 mg/kg/injection, schedule: Q04DX003 (ip), vehicle: Klucel (hydroxypropylcellulose) (HPC)
[12] = dose: 50.0 mg/kg/injection, schedule: Q01DX009 (ip), vehicle: saline
[13] = dose: 100.0 mg/kg/injection, schedule: Q01DX001 (ip), vehicle: saline
[14] = dose: 200.0 mg/kg/injection, schedule: Q01DX001 (ip), vehicle: saline
[15] = dose: 400.0 mg/kg/injection, schedule: Q01DX001 (ip), vehicle: saline
[16] = dose: 400.0 mg/kg/injection, schedule: Q04DX002 (ip), vehicle: Klucel (hydroxypropylcellulose) (HPC)
[17] = dose: 100.0 mg/kg/injection, schedule: Q01DX001 (ip), vehicle: saline with Tween-80
[18] = dose: 200.0 mg/kg/injection, schedule: Q01DX001 (ip), vehicle: saline with Tween-80
[19] = dose: 400.0 mg/kg/injection, schedule: Q01DX001 (ip), vehicle: saline with Tween-80

Measured: T/C

Nc1ccc(N)nc1
inactive: [1] 98 % of control | [2] 95 % of control | [3] 98 % of control | [4] 93 % of control | [5] 94 % of control | [6] 98 % of control

O=[N+]([O-])CC1c2ccccc2Nc2ccccc21
inactive: dose: 50.0 mg/kg/injection, schedule: Q01DX009 (ip), vehicle: saline with Tween-80 93 % of control | dose: 100.0 mg/kg/injection, schedule: Q01DX009 (ip), vehicle: saline with Tween-80 107 % of control | dose: 200.0 mg/kg/injection, schedule: Q01DX009 (ip), vehicle: saline with Tween-80 100 % of control

CC12CCC3c4ccc(OC(=O)c5ccc(N)cc5)cc4CCC3C1CCC2=O (stereo not given)
inactive: dose: 12.5 mg/kg/injection, schedule: Q04DX002 (ip), vehicle: saline with Tween-80 110 % of control | dose: 25.0 mg/kg/injection, schedule: Q04DX002 (ip), vehicle: saline with Tween-80 106 % of control | dose: 50.0 mg/kg/injection, schedule: Q04DX002 (ip), vehicle: saline with Tween-80 95 % of control | dose: 100.0 mg/kg/injection, schedule: Q01DX001 (sc), vehicle: steriod suspending solution 95 % of control | dose: 200.0 mg/kg/injection, schedule: Q01DX001 (sc), vehicle: steriod suspending solution 97 % of control | dose: 400.0 mg/kg/injection, schedule: Q01DX001 (sc), vehicle: steriod suspending solution 95 % of control

O=C(/C=C/C(=O)c1ccccc1)c1ccccc1
inactive: [7] 98 % of control | [8] 98 % of control | [9] 97 % of control | [10] 106 % of control | [11] 104 % of control

O=C(O)/C=C/C(=O)Nc1cccc2c1C(=O)c1ccccc1-2
inactive: dose: 100.0 mg/kg/injection, schedule: Q04DX003 (ip), vehicle: saline with Tween-80 94 % of control

O=P(O)(O)C(Cl)(Cl)Cl
inactive: [12] 100 % of control | dose: 100.0 mg/kg/injection, schedule: Q01DX009 (ip), vehicle: saline 96 % of control | dose: 100.0 mg/kg/injection, schedule: Q04DX002 (ip), vehicle: saline 92 % of control | dose: 200.0 mg/kg/injection, schedule: Q01DX009 (ip), vehicle: saline 96 % of control | dose: 200.0 mg/kg/injection, schedule: Q04DX002 (ip), vehicle: saline 99 % of control

C=CCOCC(O)COP(=O)(O)O (stereo not given)
inactive: dose: 50.0 mg/kg/injection, schedule: Q01DX001 (ip), vehicle: saline 113 % of control | [13] 103 % of control | [14] 107 % of control | [15] 109 % of control

C/C(=N/N(C)C)c1ccc(Cl)cc1
inactive: dose: 12.5 mg/kg/injection, schedule: Q01DX009 (ip), vehicle: saline 105 % of control | dose: 25.0 mg/kg/injection, schedule: Q01DX009 (ip), vehicle: saline 112 % of control | [12] 111 % of control | dose: 100.0 mg/kg/injection, schedule: Q04DX003 (ip), vehicle: saline 101 % of control

CCOC(=O)c1c[nH]c2cc(Cl)ccc2c1=O
inactive: [1] 97 % of control | [2] 98 % of control | [3] 100 % of control | [4] 102 % of control | [5] 98 % of control | [6] 96 % of control

CCNCCCNc1ccnc2cc(Cl)ccc12
inactive: dose: 10.0 mg/kg/injection, schedule: Q01DX001 (ip), vehicle: saline 96 % of control | dose: 20.0 mg/kg/injection, schedule: Q01DX001 (ip), vehicle: saline 98 % of control | dose: 40.0 mg/kg/injection, schedule: Q01DX001 (ip), vehicle: saline 93 % of control

CC(=O)c1ccc(O)c2ccccc12
inactive: dose: 100.0 mg/kg/injection, schedule: Q04DX002 (ip), vehicle: saline with Tween-80 92 % of control | dose: 200.0 mg/kg/injection, schedule: Q04DX002 (ip), vehicle: saline with Tween-80 95 % of control | dose: 400.0 mg/kg/injection, schedule: Q04DX002 (ip), vehicle: saline with Tween-80 100 % of control

COC(=O)/C(=C\c1ccc(OC)cc1)CC(=O)O
inactive: dose: 100.0 mg/kg/injection, schedule: Q01DX001 (ip), vehicle: Klucel (hydroxypropylcellulose) (HPC) 96 % of control | [1] 101 % of control and 104 % of control | [8] 98 % of control and 100 % of control | [2] 90 % of control | dose: 200.0 mg/kg/injection, schedule: Q01DX001 (ip), vehicle: Klucel (hydroxypropylcellulose) (HPC) 93 % of control | [3] 95 % of control and 101 % of control | [10] 95 % of control and 113 % of control | [4] 97 % of control | dose: 400.0 mg/kg/injection, schedule: Q01DX001 (ip), vehicle: Klucel (hydroxypropylcellulose) (HPC) 104 % of control | [5] 93 % of control and 108 % of control | [16] 102 % of control and 103 % of control | [6] 97 % of control

CCCCCCCCCC(O)CC (stereo not given)
inactive: [1] 106 % of control | [2] 103 % of control | [3] 102 % of control | [4] 103 % of control | [5] 105 % of control | [6] 103 % of control

COc1cc(NC(C)=O)c2ncccc2c1NC(C)=O
inactive: dose: 50.0 mg/kg/injection, schedule: Q01DX001 (ip), vehicle: carboxymethylcellulose (CMC) 96 % of control | dose: 100.0 mg/kg/injection, schedule: Q01DX001 (ip), vehicle: carboxymethylcellulose (CMC) 102 % of control | dose: 200.0 mg/kg/injection, schedule: Q01DX001 (ip), vehicle: carboxymethylcellulose (CMC) 96 % of control | dose: 400.0 mg/kg/injection, schedule: Q01DX001 (ip), vehicle: carboxymethylcellulose (CMC) 94 % of control

CC1=C(N)/C(=C(/C)C#N)OC1=O
inactive: [17] 92 % of control | [18] 100 % of control | [19] 92 % of control

O=C(O)C(CSC(c1ccccc1)c1ccccc1)N1C(=O)c2ccccc2C1=O (stereo not given)
inactive: dose: 75.0 mg/kg/injection, schedule: Q01DX009 (ip), vehicle: Klucel (hydroxypropylcellulose) (HPC) 102 % of control | [7] 97 % of control | dose: 150.0 mg/kg/injection, schedule: Q01DX009 (ip), vehicle: Klucel (hydroxypropylcellulose) (HPC) 98 % of control | [9] 109 % of control | dose: 300.0 mg/kg/injection, schedule: Q01DX009 (ip), vehicle: Klucel (hydroxypropylcellulose) (HPC) 104 % of control | [11] 94 % of control

Cc1ccccc1SC(=O)Nc1cccc(Cl)c1Cl
inactive: dose: 25.0 mg/kg/injection, schedule: Q01DX009 (ip), vehicle: Klucel (hydroxypropylcellulose) (HPC) 112 % of control | dose: 50.0 mg/kg/injection, schedule: Q01DX009 (ip), vehicle: Klucel (hydroxypropylcellulose) (HPC) 104 % of control | [1] 94 % of control and 103 % of control | [3] 87 % of control

CC1CSC(=S)S1 (stereo not given)
inactive: dose: 50.0 mg/kg/injection, schedule: Q04DX003 (ip), vehicle: Klucel (hydroxypropylcellulose) (HPC) 102 % of control | [2] 107 % of control | [4] 104 % of control

NC(CNC(=O)Oc1ccccc1)C(=O)O (stereo not given)
inactive: [17] 95 % of control | [18] 103 % of control | [19] 92 % of control

O=C(O)C(CSSCC(NS(=O)(=O)Cc1ccccc1)C(=O)O)NS(=O)(=O)Cc1ccccc1 (stereo not given)
inactive: dose: 100.0 mg/kg/injection, schedule: Q04DX003 (ip), vehicle: other 97 % of control | dose: 200.0 mg/kg/injection, schedule: Q04DX003 (ip), vehicle: other 92 % of control | dose: 400.0 mg/kg/injection, schedule: Q04DX003 (ip), vehicle: other 93 % of control

C/C=C\c1ccc(OC(=O)Nc2cccc(Cl)c2)c(OC)c1
inactive: [8] 101 % of control | [10] 95 % of control | [16] 92 % of control

C/C=C1\CN(C(=O)C(NC(=O)C(N)C(O)C(O)COC(N)=O)C2OC(n3cc(C(=O)O)c(=O)[nH]c3=O)C(O)C2O)C1C(=O)O (stereo not given) (tested in a mixture with another compound)
inactive: [13] 109 % of control | [14] 103 % of control | [15] 97 % of control

CC1(C)C/C(=C\c2cccc(Br)c2)C(=O)c2ccccc21
inactive: [1] 104 % of control | [2] 98 % of control | [3] 98 % of control | [4] 106 % of control | [5] 103 % of control | [6] 101 % of control

CCCCn1cncc1C
inactive: dose: 1.56 mg/kg/injection, schedule: Q01DX009 (ip), vehicle: saline 88 % of control | dose: 3.13 mg/kg/injection, schedule: Q01DX009 (ip), vehicle: saline 98 % of control | dose: 6.25 mg/kg/injection, schedule: Q01DX009 (ip), vehicle: saline 98 % of control and 104 % of control
